Experimental data as given in the NIST ThermoML archive (doi:10.1016/j.jct.2005.03.006).

Experiment: wn = mass fraction of the nth substance listed
Details: Liquid, Buoyancy - hydrostatic balance

c1ccccc1 [benzene] + CO
mass density [kg/m3]
Details	100 kPa	5000 kPa	9900 kPa	19700 kPa	29500 kPa	39300 kPa	49100 kPa	58900 kPa
287.65 K, w2 = 0.5	840.5	844.4	847.9	855.8	863	869.5	875.2	881
291.15 K, w2 = 0.25	857.7	862	866.1	873.8	880.6	887.3	893.2	899.1
292.65 K, w2 = 0.75	815.2	819.9	824.2	832.1	839.2	846.4	852.5	858.7
297.35 K, w2 = 0.5	830.9	835.6	839.9	847.7	855	862.1	868	874
313.66 K, w2 = 0.25	835	840.1	844.8	852.9	860.8	868.4	875.1	881
314.15 K, w2 = 0.75	795.6	800.3	804.7	813	821.1	828.8	835.9	–
322.15 K, w2 = 0.5	806.5	811.8	817	825.3	833.4	841.4	848.2	855.1
337.37 K, w2 = 0.25	–	816.2	822.1	831	840	848.3	856	862.7
338.35 K, w2 = 0.75	–	776.6	781.6	791	800.2	809	817.1	823.9
341.35 K, w2 = 0.5	–	791.4	797.7	807.3	816.2	825.1	832.9	840
356.15 K, w2 = 0.5	–	775.2	781.8	792	802.8	811.7	819.8	827.6
361.64 K, w2 = 0.25	–	789.2	796.5	806.8	817.1	826.9	835	842.7
361.65 K, w2 = 0.75	–	750.9	757	767.9	778.4	788.1	797	804.9
376.65 K, w2 = 0.5	–	750.9	758.2	770.8	784	793.2	801.8	–
383.15 K, w2 = 0.75	–	724.9	732.5	745	757.4	–	–	–
